{
  "source": "patent US20130202545A1",
  "about": "“Stablised Polyphenol Derivatives, Process for Their Manufacture, and Uses Thereof” (BERKEM S.A., priority 2010, published 2013)",
  "test_system": "explants of human skin",
  "assay": "Anti-lipoperoxidant activity: MDA level in UV-irradiated human skin explants",
  "format": "cell-based",
  "text": "Oxygenated free radicals are produced in large quantities on the skin as a result of UV irradiation. These free radical species cause various forms of degradation to cellular components, and in particular, to membrane lipids. The latter are transformed into various hydroperoxide derivatives, such as for example malonyldialdehyde (MDA), and 4-hydrononenal (4-HNE). The determination of the amount of MDA in skin tissues is thus a good indicator of the production of oxygenated free radicals and peroxidation of membrane lipids. A comparison of the levels of MDA between treated and non-treated subjects therefore indicates whether the product applied has anti-lipoperoxidant activity. The model used for the experiments is one of human skin explants which are maintained in survival mode at 37° C., a humid atmosphere and 5% CO2. The skin explants are divided into three positive control batch treated with vitamin E (2 mg per explant) The products to be tested are dissolved at a concentration of 2% Vaseline oil. This solution is applied topically to the skin explants at a rate of one 30 micro-litre application per explant per day for 5 days. […] Levels of MDA (expressed in pmoles of MDA/ml of medium) in the explants are measured for both the treated and untreated batches. […] Antiradical activity was determined using the same method described in example 17. […]",
  "data": [
    {"substance": "Vitamin E", "values": [
      {"measurement": "% Reduction in MDA", "setting": "Example 21, etherified (silyl ether) OPC, same method as the earlier MDA example", "result": 11, "unit": "%"},
      {"measurement": "% Reduction in MDA", "setting": "products 2% in Vaseline oil, 30 micro-litre per explant per day for 5 days (vitamin E 2 mg per explant), UV A and UV B on day 5, treated vs untreated explants", "result": 11, "unit": "%"}
    ]}
  ]
}
